Measured values taken from ChEMBL document CHEMBL4800722, “Data for DCP probe BI 605906” (2021).

Legend:
[1] = molecular target: Voltage-dependent L-type calcium channel subunit alpha-1C (CA+/DILSI/RA) (Rattus norvegicus, UniProt P22002); assay: CA+/DILSI/RA Eurofins SafetyScreen44 (BI); conditions: read-out: % Ctrl
[2] = molecular target: AMP-activated protein kinase alpha-2/beta-2/gamma-2 (Homo sapiens) (UniProt P54646+O43741+Q9UGJ0); assay: AMPK (A2/B2/G2) Invitrogen Lab (UK) kinase screen (BI); type: protein-complex assay; conditions: Compound concentration 1.0 uM
[3] = molecular target: CDK17/Cyclin-Y (Homo sapiens) (UniProt Q00537+Q8ND76); assay: CDK17/CYCLIN Y Invitrogen Lab (UK) kinase screen (BI); type: protein-complex assay; conditions: Compound concentration 1.0 uM
[4] = molecular target: NUAK family SNF1-like kinase 2 (Homo sapiens) (UniProt Q9H093); assay: NUAK2 Invitrogen Lab (UK) kinase screen (BI); conditions: Compound concentration 1.0 uM
[5] = molecular target: Phosphatidylinositol 5-phosphate 4-kinase type-2 alpha (Homo sapiens) (UniProt P48426); assay: PIP4K2A Invitrogen Lab (UK) kinase screen (BI); conditions: Compound concentration 1.0 uM
[6] = molecular target: Serine/threonine-protein kinase N2 (Homo sapiens) (UniProt Q16513); assay: PKN2 Invitrogen Lab (UK) kinase screen (BI); conditions: Compound concentration 1.0 uM
[7] = molecular target: CDK9/Cyclin K (Homo sapiens) (UniProt P50750+O75909); assay: CDK9_CYCLINK Invitrogen Lab (UK) kinase screen (BI); type: protein-complex assay; conditions: Compound concentration 1.0 uM
[8] = molecular target: Ephrin type-A receptor 8 (Homo sapiens) (UniProt P29322); assay: EPHA8 Invitrogen Lab (UK) kinase screen (BI); conditions: Compound concentration 1.0 uM
[9] = molecular target: Homeodomain-interacting protein kinase 2 (Homo sapiens) (UniProt Q9H2X6); assay: HIPK2 Invitrogen Lab (UK) kinase screen (BI); conditions: Compound concentration 1.0 uM
[10] = molecular target: Leucine-rich repeat serine/threonine-protein kinase 2 (Homo sapiens) (UniProt Q5S007); assay: LRRK2_FL Invitrogen Lab (UK) kinase screen (BI); conditions: Compound concentration 1.0 uM
[11] = molecular target: Muscle, skeletal receptor tyrosine-protein kinase (Homo sapiens) (UniProt O15146); assay: MUSK Invitrogen Lab (UK) kinase screen (BI); conditions: Compound concentration 1.0 uM
[12] = molecular target: Casein kinase 2 (Homo sapiens) (UniProt P67870+P68400+P19784+Q8NEV1); assay: CK2 DUNDEE kinase screen (BI); type: protein assay; conditions: Compound concentration 10.0 uM
[13] = molecular target: Eukaryotic elongation factor 2 kinase (Homo sapiens) (UniProt O00418); assay: EF2K DUNDEE kinase screen (BI); conditions: filed as activator, Compound concentration 10.0 uM
Homo sapiens = species on record: Homo sapiens; assay: PKBDPH (PKB delta PH) DUNDEE kinase screen (BI); conditions: Compound concentration 10.0 uM
[14] = molecular target: 5-hydroxytryptamine receptor 6 (Homo sapiens) (UniProt P50406); conditions: Compound concentration 10.0 uM
[15] = molecular target: Beta-2 adrenergic receptor (Homo sapiens) (UniProt P07550); conditions: Compound concentration 10.0 uM
[16] = molecular target: Endothelin-converting enzyme 1 (Homo sapiens) (UniProt P42892); conditions: Compound concentration 10.0 uM
[17] = molecular target: Nitric oxide synthase 3 (Bos taurus) (UniProt P29473); conditions: Compound concentration 10.0 uM
[18] = molecular target: Endothelin-1 receptor (Homo sapiens) (UniProt P25101); conditions: Compound concentration 100.0 uM
[19] = molecular target: Histamine H2 receptor (Homo sapiens) (UniProt P25021); conditions: Compound concentration 10.0 uM
[20] = molecular target: Leukotriene A-4 hydrolase (Cavia porcellus) (UniProt P19602); conditions: Compound concentration 10.0 uM
[21] = molecular target: Serine/threonine-protein kinase ICK (Homo sapiens) (UniProt Q9UPZ9); conditions: Compound concentration 1.0 uM
[22] = molecular target: Myosin-IIIb (Homo sapiens) (UniProt Q8WXR4); conditions: Compound concentration 1.0 uM
[23] = molecular target: Phosphatidylinositol 4-phosphate 5-kinase type-1 beta (Homo sapiens) (UniProt O14986); conditions: Compound concentration 1.0 uM
[24] = molecular target: Serine/threonine-protein kinase SIK1 (Homo sapiens) (UniProt P57059); conditions: Compound concentration 1.0 uM
[25] = molecular target: Serine/threonine-protein kinase 17B (Homo sapiens) (UniProt O94768); conditions: Compound concentration 1.0 uM
[26] = molecular target: TRAF2 and NCK-interacting protein kinase (Homo sapiens) (UniProt Q9UKE5); conditions: Compound concentration 1.0 uM
[27] = molecular target: Aurora kinase B (Homo sapiens) (UniProt Q96GD4); conditions: Compound concentration 1.0 uM
Chain of Aurora kinase B (Homo sapiens) (Q96GD4 whole entry): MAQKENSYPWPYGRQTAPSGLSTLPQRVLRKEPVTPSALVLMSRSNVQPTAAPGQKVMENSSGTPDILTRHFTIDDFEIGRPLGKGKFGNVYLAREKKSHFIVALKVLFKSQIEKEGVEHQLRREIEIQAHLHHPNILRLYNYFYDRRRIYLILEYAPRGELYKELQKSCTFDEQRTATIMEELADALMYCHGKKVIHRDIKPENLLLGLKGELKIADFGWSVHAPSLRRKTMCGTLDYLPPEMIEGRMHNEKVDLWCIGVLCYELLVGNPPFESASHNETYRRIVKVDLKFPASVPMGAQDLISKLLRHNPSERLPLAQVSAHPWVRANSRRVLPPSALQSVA

[28] = molecular target: Cyclin-dependent kinase 1/cyclin B (Homo sapiens) (UniProt P06493+P14635+Q8WWL7+O95067)
[29] = molecular target: Death-associated protein kinase 1 (Homo sapiens) (UniProt P53355); conditions: Compound concentration 1.0 uM
[30] = molecular target: Discoidin domain-containing receptor 2 (Homo sapiens) (UniProt Q16832); conditions: Compound concentration 1.0 uM
[31] = molecular target: Epidermal growth factor receptor (Homo sapiens) (UniProt P00533)
Chain of Epidermal growth factor receptor (Homo sapiens) (P00533 whole entry): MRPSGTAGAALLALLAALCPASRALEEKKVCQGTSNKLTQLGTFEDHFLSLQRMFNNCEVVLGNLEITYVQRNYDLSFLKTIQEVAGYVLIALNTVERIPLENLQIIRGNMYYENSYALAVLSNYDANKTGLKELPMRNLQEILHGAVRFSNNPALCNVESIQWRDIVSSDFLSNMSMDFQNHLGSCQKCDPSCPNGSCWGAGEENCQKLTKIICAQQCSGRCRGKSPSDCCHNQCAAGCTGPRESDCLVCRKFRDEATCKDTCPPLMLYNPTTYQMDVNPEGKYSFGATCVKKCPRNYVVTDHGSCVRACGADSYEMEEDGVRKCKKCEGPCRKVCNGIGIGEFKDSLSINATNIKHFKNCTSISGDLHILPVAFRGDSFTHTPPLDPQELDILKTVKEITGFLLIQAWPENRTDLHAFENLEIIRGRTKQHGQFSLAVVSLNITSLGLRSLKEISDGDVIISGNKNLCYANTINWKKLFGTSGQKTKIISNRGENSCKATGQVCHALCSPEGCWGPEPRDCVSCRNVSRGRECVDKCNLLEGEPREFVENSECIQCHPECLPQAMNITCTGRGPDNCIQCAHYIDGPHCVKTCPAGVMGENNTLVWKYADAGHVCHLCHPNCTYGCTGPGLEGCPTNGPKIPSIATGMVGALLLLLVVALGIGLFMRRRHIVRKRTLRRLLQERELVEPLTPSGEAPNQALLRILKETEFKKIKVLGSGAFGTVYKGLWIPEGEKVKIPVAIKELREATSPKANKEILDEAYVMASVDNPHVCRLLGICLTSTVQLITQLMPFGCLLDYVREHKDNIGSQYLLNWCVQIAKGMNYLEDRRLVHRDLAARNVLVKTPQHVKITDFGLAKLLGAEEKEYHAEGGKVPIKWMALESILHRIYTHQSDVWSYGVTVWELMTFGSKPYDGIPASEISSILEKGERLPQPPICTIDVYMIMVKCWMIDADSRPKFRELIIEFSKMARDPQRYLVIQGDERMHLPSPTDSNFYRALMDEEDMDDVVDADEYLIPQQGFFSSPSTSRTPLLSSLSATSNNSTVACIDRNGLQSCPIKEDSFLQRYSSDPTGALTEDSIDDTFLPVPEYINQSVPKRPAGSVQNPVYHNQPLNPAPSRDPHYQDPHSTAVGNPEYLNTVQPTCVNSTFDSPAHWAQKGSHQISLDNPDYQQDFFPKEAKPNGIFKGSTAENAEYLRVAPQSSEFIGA

[32] = molecular target: Fibroblast growth factor receptor 1 (Homo sapiens) (UniProt P11362)
Chain of Fibroblast growth factor receptor 1 (Homo sapiens) (P11362 22-822 limits assumed): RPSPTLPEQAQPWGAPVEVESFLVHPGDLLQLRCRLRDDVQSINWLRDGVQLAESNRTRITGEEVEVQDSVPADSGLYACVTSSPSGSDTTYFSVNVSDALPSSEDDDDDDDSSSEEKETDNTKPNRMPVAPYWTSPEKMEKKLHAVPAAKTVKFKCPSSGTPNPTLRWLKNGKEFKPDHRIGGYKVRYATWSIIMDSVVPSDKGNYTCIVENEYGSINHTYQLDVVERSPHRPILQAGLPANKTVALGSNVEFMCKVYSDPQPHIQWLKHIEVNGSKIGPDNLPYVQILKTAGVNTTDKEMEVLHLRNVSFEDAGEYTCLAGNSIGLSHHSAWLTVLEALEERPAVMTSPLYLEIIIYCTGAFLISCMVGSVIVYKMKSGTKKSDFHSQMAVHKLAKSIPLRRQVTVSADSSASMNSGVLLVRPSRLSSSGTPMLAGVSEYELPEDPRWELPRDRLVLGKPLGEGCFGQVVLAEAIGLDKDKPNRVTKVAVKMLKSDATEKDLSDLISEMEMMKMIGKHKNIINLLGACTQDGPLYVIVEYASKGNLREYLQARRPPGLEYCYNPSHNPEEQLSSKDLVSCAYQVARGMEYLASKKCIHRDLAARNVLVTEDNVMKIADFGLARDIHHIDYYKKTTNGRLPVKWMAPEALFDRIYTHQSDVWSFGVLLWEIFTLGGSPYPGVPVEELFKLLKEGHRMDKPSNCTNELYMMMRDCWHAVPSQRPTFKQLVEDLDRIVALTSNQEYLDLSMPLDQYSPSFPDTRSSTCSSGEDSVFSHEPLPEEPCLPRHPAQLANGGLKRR

[33] = molecular target: Inhibitor of nuclear factor kappa-B kinase subunit beta (Homo sapiens) (UniProt O14920)
[34] = molecular target: Mitogen-activated protein kinase kinase kinase 10 (Homo sapiens) (UniProt Q02779); conditions: Compound concentration 1.0 uM
[35] = molecular target: MAP kinase-activated protein kinase 2 (Homo sapiens) (UniProt P49137)
Chain of MAP kinase-activated protein kinase 2 (Homo sapiens) (P49137 whole entry, looked up): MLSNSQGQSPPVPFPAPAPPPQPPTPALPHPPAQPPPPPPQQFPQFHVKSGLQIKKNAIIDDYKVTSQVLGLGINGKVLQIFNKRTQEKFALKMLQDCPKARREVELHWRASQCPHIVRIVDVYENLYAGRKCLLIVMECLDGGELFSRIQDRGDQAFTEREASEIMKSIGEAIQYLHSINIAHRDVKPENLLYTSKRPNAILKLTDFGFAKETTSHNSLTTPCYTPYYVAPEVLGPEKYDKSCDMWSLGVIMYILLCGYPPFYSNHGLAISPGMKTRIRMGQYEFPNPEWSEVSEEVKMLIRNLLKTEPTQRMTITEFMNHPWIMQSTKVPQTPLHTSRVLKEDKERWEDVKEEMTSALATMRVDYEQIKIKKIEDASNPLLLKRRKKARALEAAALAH

[36] = molecular target: MAP kinase-activated protein kinase 5 (Homo sapiens) (UniProt Q8IW41); conditions: Compound concentration 1.0 uM
[37] = molecular target: Serine/threonine-protein kinase Nek4 (Homo sapiens) (UniProt P51957); conditions: Compound concentration 1.0 uM
[38] = molecular target: Serine/threonine-protein kinase PAK 3 (Homo sapiens) (UniProt O75914); conditions: Compound concentration 1.0 uM
[39] = molecular target: Protein-tyrosine kinase 2-beta (Homo sapiens) (UniProt Q14289)
[40] = molecular target: Ribosomal protein S6 kinase alpha-6 (Homo sapiens) (UniProt Q9UK32); conditions: Compound concentration 1.0 uM

Chain of Voltage-dependent L-type calcium channel subunit alpha-1C (CA+/DILSI/RA) (P22002 whole entry): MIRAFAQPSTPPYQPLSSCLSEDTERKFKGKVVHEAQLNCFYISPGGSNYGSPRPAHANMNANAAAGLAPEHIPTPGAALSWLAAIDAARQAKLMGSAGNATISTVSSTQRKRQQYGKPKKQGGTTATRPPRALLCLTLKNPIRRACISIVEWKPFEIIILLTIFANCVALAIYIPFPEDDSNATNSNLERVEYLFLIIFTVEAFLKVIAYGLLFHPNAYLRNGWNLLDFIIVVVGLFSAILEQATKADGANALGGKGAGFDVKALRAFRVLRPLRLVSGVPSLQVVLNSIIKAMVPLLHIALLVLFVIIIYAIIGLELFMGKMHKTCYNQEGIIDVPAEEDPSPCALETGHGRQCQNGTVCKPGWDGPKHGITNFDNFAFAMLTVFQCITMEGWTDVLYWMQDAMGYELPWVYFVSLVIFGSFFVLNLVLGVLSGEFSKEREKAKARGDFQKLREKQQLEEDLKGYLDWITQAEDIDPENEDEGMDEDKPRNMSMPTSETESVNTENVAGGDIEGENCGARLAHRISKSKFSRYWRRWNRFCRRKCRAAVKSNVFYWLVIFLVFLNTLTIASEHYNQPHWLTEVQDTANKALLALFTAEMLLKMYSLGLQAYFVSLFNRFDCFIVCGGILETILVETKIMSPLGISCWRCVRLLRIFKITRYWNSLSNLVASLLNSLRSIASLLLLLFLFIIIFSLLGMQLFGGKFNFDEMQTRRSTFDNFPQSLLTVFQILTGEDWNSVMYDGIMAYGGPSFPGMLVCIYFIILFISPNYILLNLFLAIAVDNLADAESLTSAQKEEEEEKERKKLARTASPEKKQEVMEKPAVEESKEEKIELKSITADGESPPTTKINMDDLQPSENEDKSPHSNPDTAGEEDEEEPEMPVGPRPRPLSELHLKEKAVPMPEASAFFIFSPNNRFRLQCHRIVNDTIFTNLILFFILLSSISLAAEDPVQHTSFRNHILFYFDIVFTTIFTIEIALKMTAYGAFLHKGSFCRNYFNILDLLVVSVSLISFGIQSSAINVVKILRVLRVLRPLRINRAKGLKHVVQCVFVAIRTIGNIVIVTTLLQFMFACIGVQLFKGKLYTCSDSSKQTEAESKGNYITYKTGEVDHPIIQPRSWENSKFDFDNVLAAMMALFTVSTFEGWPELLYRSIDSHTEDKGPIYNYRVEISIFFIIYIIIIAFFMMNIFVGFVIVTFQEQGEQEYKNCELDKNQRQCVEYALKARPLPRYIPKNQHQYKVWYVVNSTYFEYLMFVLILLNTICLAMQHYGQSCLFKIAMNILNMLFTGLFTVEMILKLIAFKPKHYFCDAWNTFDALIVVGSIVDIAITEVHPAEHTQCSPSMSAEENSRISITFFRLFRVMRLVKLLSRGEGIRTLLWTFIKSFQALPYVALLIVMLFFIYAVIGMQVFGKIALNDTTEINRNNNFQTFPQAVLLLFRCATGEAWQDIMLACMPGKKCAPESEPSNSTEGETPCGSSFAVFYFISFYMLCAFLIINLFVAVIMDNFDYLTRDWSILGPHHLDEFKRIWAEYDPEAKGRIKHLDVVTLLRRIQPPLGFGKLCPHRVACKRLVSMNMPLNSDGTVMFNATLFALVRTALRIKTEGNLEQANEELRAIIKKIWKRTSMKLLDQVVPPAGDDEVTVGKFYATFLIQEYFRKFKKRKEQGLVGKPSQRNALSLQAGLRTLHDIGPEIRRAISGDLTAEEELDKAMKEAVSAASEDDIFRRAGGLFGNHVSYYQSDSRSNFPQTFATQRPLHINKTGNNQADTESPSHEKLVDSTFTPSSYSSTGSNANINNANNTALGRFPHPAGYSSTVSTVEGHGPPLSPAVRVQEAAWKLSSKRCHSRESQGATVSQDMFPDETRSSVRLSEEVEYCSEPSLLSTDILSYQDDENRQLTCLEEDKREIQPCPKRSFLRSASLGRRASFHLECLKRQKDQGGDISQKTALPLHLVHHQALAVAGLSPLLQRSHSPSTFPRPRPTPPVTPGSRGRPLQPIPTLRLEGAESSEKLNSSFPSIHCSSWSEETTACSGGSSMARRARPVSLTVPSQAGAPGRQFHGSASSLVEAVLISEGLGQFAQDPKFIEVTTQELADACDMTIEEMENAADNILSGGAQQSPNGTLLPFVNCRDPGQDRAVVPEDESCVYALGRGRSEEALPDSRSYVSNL

SMILES: CCC(F)(F)c1cc(N2CCC(S(C)(=O)=O)CC2)nc2sc(C(N)=O)c(N)c12 [BI-605906]
- activity at 1 µM ([1]; compound concentration 1 uM): 99% (not active)
- activity at 3 µM ([1]; compound concentration 3 uM): 111% (not active)
- activity at 10 µM ([1]; compound concentration 10 uM): 101% (not active)
- activity at 30 µM ([1]; compound concentration 30 uM): 87% (not active)
- activity at 100 µM ([1]; compound concentration 100 uM): 45%
- residual activity [2]: 88%
- residual activity [3]: 88%
- residual activity [4]: 86%
- residual activity [5]: 115%
- residual activity [6]: 86%
- residual activity [7]: 88%
- residual activity [8]: 85%
- residual activity [9]: 81%
- residual activity [10]: 62%
- residual activity [11]: 84%
- residual activity [12]: 89.4%
- residual activity [13]: 66.2%
- residual activity (Homo sapiens): 75.6%
- inhibition [14]: 8.77%
- inhibition [15]: 8.96%
- residual activity [16]: 82%
- residual activity [17]: 100%
- residual activity [18]: 101%
- residual activity [19]: 94%
- residual activity [20]: 93%
- residual activity [21]: 96%
- residual activity [22]: 90%
- residual activity [23]: 108%
- residual activity [24]: 92%
- residual activity [25]: 97%
- residual activity [26]: 99%
- residual activity [27]: 98%
- residual activity ([28]; Compound concentration 1.0 uM): 92%
- residual activity ([28]; Compound concentration 10.0 uM): 94%
- residual activity [29]: 100%
- residual activity [30]: 99%
- residual activity ([31]; Compound concentration 1.0 uM): 99%
- residual activity ([31]; Compound concentration 10.0 uM): 90%
- residual activity ([32]; Compound concentration 1.0 uM): 84%
- residual activity ([32]; Compound concentration 10.0 uM): 91%
- residual activity ([33]; Compound concentration 1.0 uM): 13.5%
- residual activity ([33]; Compound concentration 10.0 uM): -1.5%
- residual activity [34]: 98%
- residual activity ([35]; Compound concentration 1.0 uM): 93%
- residual activity ([35]; Compound concentration 10.0 uM): 87%
- residual activity [36]: 92%
- residual activity [37]: 89%
- residual activity [38]: 101%
- residual activity ([39]; Compound concentration 1.0 uM): 91%
- residual activity ([39]; Compound concentration 10.0 uM): 70%
- residual activity [40]: 98%
